Source: patent US11999755B1, “Effective anticancer drug candidate of dinuclear palladium (II) bis-dihydrozone malonyl complex” (KING FAISAL UNIVERSITY, priority 2024, dated 2024)

What was measured:
[1] = test system: HepG-2 (Hepatocellular carcinoma); assay: SRB anticancer assay, HepG-2; assay type: cell-based, human; conditions: for IC50: SRB stain, 48 hours at 37° C., absorbance 564 nm
Source text: (§1) Investigation for the bio-reactivity of H2L and PdL, as anticancer candidates, was achieved versus well documented human cancer cell lines, as three cancers entitled HepG2, MCF-7, and HCT-116, using the simplest tool SRB (sulforhodamine-B-stain). In particular, the most popular anticancer referenced drug (vinblastine) was used in the anticancer assay (the inhibited action of the cancer cells) to compare its bio-reactivity versus that one of H2L and PdL.
(§2) With HepG-2 (Hepatocellular carcinoma), HCT-116 (colon carcinoma), and MCF7 (breast adenocarcinoma), as human cancer cell lines, the antiproliferative reactivity of H2L and PdL was studied against the growth of these cancer cells by applying a spectrometric tool. Using SRB (sulforhodamine-B-stain) was essential in the spectrometric studies at a specific wavelength (564 nm, the optimized absorption wavelength). Recording the corresponded absorbance (A) at 564 nm was accomplished using a UV/Vis. spectrophotometer, UV-1800 mode Shimadzu with a mono-cell holder. With plates of 96-multiwell model, the culture of the current human cancer cell lines of 10^4 cells per well were accomplished followed by a gentle addition of DMSO solution of H2L or PdL the cultured wells of the cancer cell lines.
(§3) The resulting mixed solution of H2L or PdL solution with the subjected cancer cell line of human in SRB was assigned in incubated isolated atmosphere for 48 hours at 37° C. The isolated atmosphere was accomplished by CO2 gas bubbling with v/v […].
(§4) The same procedure was followed with vinblastine, as vinblastine was subjected as a reference anticancer agent to compare its reactivity against that one of the studied H2L and PdL. For WI-38, as the normal human fetal lung fibroblast, the pervious procedure of the cancer cell lines was applied for H2L and PdL to evaluate their selectivity index. Using Eq. 1, below, to derive the inhibited potential of H2L or PdL against the growth of the human cancer and normal cell lines through their effective concentration in M (IC50, the half effective concentration of H2L or PdL): […]

[2] = test system: WI-38, normal human fetal lung fibroblast; assay: SRB assay on normal cell line WI-38; assay type: cell-based; conditions: SRB stain, 48 hours at 37° C.
Source text: as §1
as §2, with “lines. […]” for “lines.”

[3] = test system: HCT-116 (colon carcinoma); assay: SRB anticancer assay, HCT-116; assay type: cell-based, human; conditions: for IC50: SRB stain, 48 hours at 37° C., absorbance 564 nm
Source text: as §1, §2, §3, §4

[4] = test system: MCF7 (breast adenocarcinoma); assay: SRB anticancer assay, MCF-7; assay type: cell-based, human; conditions: for IC50: SRB stain, 48 hours at 37° C., absorbance 564 nm
Source text: as §1, §2, §3, §4

| IC50 [1] [µM] | IC50 [3] [µM] | IC50 [4] [µM] | IC50 ([1]; Homo sapiens, HepG2) [µM] | IC50 ([3]; Homo sapiens, HCT-116) [µM] | IC50 ([4]; Homo sapiens, MCF7) [µM] | Structure (SMILES) | Selectivity index HepG-2 ([1]; normal WI-38 versus HepG-2) | IC50 [2] [µM] | Selectivity index HCT-116 ([3]; normal WI-38 versus HCT-116) | Selectivity index MCF-7 ([4]; normal WI-38 versus MCF-7) |
| --- | --- | --- | --- | --- | --- | --- | --- | --- | --- | --- |
| 48.6 | 49.6 | 43.1 |  |  |  | O=C(CC(=O)NN=C1C(=O)Nc2ccccc21)NN=C1C(=O)Nc2ccccc21 [H2L, malonyl dihydrazone-isatin ligand] | 2.77 | 133 ± 0.75 | 2.71 | 3.09 |
|  |  |  | 7.5 ± 0.1 | 13.3 ± 0.11 | 4.12 ± 0.14 | CC[C@]1(O)C[C@@H]2CN(CCc3c([nH]c4ccccc34)[C@@](C(=O)OC)(c3cc4c(cc3OC)N(C)[C@H]3[C@@](O)(C(=O)OC)[C@H](OC(C)=O)[C@]5(CC)C=CCN6CC[C@]43[C@@H]65)C2)C1 [Vinblastine, vinblastine, reference compound] |  |  |  |  |
